{"source": "patent US11053206B2", "about": "“Hydrofluorocarboximidate and methods of making and using the same” (3M INNOVATIVE PROPERTIES COMPANY, priority 2017, dated 2021)", "assay": "Thermal stability (purity by GC-FID after heating with absorbent)", "assay_type": "physicochemical", "details": "initial purity 97.7%", "experimental": "The samples were stirred for 24 h at 50° C. and then analyzed for purity by GC-FID. The % purity EX-6 initially was 97.7%. Shown in Table 2 below are the % purity after the thermal stability test. All of the results are within error of the test method.", "data": [{"smiles": "CO/C(=N\\C(F)(F)C(F)(F)C(F)(F)F)C(F)(F)C(F)(F)F", "note": "[EX-6, methyl 2,2,3,3,3-pentafluoro-N-(perfluoropropyl)propanimidate]", "values": [{"measurement": "Purity (%) after thermal stability test", "setting": "100 mg 4 Angstrom Molecular Sieves, 1 g stirred 24 h at 50° C.", "result": 98.0, "unit": "%"}, {"measurement": "Purity (%) after thermal stability test", "setting": "100 mg Activated Carbon, 1 g stirred 24 h at 50° C.", "result": 98.2, "unit": "%"}, {"measurement": "Purity (%) after thermal stability test", "setting": "100 mg Basic Alumina, 1 g stirred 24 h at 50° C.", "result": 98.0, "unit": "%"}, {"measurement": "Purity (%) after thermal stability test", "setting": "100 mg K2CO3, 1 g stirred 24 h at 50° C.", "result": 97.9, "unit": "%"}, {"measurement": "Purity (%) after thermal stability test", "setting": "100 mg Silica Gel, 1 g stirred 24 h at 50° C.", "result": 97.9, "unit": "%"}, {"measurement": "Purity (%) after thermal stability test", "setting": "No absorbent, 1 g stirred 24 h at 50° C.", "result": 97.7, "unit": "%"}]}]}
